# “Also recorded” adds a separate entry of the source.
# Assays:
# Human MC3R = conditions: ref [3]; cited from earlier work
# omMc3r [1] = assay: cAMP signaling, CRE luciferase reporter (pGL4.29) assay; format: cell-based, Onychostoma macrolepis; conditions: pGL4.29 (CRE) luciferase reporter
# Procedure: (§1) In order to test whether omMc3r can be activated by ligands in vitro, we sub-cloned the coding region of omMc3r into pcDNA3.1 (+) vector (Invitrogen, Carlsbad, CA, USA) for subsequent transfection of cells. The constructed vector was further verified by sequencing before use.
# (§2) Human embryonic kidney (HEK293T) cells were cultured in Dulbecco modified Eagle’s medium (DMEM, Invitrogen, Carlsbad, CA, USA) supplemented with 10% fetal bovine serum (FBS, Biological Industries, Kibbutz Beit Haemek, Israel) and placed in a humid environment containing 5% CO2 at 37 °C. Cells were passaged every 2 days.
# (§3) This study employed the luciferase reporter system to examine whether the four ligands can activate downstream signals through omMc3r. The luciferase reporter vector pGL4.29 and pGL4.33 of Promega (Madison, WI, USA) contain cAMP respose element (CRE) and serum response element (SRE) in their promoter regions, which can monitor the activation of cAMP and MAPK/ERK signaling pathways, respectively. The brief operating procedure was as follows: the HEK293T cells were passaged to a 6-well plate 24 h before transfection. […] An Infinite F200 microplate reader (Tecan, Männedorf, Switzerland) was used to measure the luciferase activities. […]
# omMc3r [2] = assay: MAPK/ERK (ERK1/2) signaling, SRE luciferase reporter (pGL4.33) assay; format: cell-based, Onychostoma macrolepis
# Procedure: as §1, §2, §3
# Mc3r of spiny dogfish = conditions: ref [3]; cited from earlier work
# Mc3r of channel catfish = conditions: ref [12]; cited from earlier work
substance,measurement,setting,value
γ-melanocyte-stimulating hormone [γ-MSH],ligand preference of human MC3R (in words),Human MC3R,unique preference
β-melanocyte-stimulating hormone [β-MSH],EC50,"omMc3r [1]; HEK293T cells transiently transfected with omMc3r plasmid, ligand 6 h in serum-free DMEM, fold change vs serum-free DMEM, nonlinear regression, mean ± SEM (n = 3, figure legend: mean (SD) of three independent experiments), read-out: EC50, cAMP Response",270 ± 4.95 nM
same,activation of cAMP signaling through omMc3r (in words),"omMc3r [1]; HEK293T cells, ligand 6 h",can all activate the cAMP and MAPK/ERK signaling pathway; also recorded: can activate cAMP and MAPK/ERK signaling pathways in a dose-dependent manner; also recorded: could potently activate the Gαs-cAMP and MAPK/ERK signaling pathway through omMc3r; also recorded: could activate cAMP and the MAPK/ERK signaling through omMc3r with different degrees of potency
same,EC50,"omMc3r [2]; HEK293T cells co-transfected with omMc3r plasmid and pGL4.33 (SRE) luciferase reporter, ligand 6 h in serum-free DMEM, fold change vs serum-free DMEM, nonlinear regression, mean ± SEM (n = 3, figure legend: mean (SD) of three independent experiments), read-out: EC50, ERK1/2 Response",4850 ± 10.7 nM
same,activation of MAPK/ERK signaling through omMc3r (in words),"omMc3r [2]; HEK293T cells, pGL4.33 (SRE) luciferase reporter, ligand 6 h",can all activate the cAMP and MAPK/ERK signaling pathway; also recorded: can activate cAMP and MAPK/ERK signaling pathways in a dose-dependent manner; also recorded: could potently activate the Gαs-cAMP and MAPK/ERK signaling pathway through omMc3r; also recorded: could activate cAMP and the MAPK/ERK signaling through omMc3r with different degrees of potency
adrenocorticotropin [ACTH],ligand affinity of spiny dogfish Mc3r (in words),Mc3r of spiny dogfish,highest affinity
same,ligand affinity of channel catfish Mc3r (in words),Mc3r of channel catfish,highest affinity
